Patent EP1363899B1, “QUINAZOLONE DERIVATIVES AS ALPHA 1A/B ADRENERGIC RECEPTOR ANTAGONISTS” (F.HOFFMANN-LA ROCHE AG, priority 2001, dated 2002)

Experiments:
[1] = biological target: T1, alpha-1B adrenoceptor (Homo sapiens, UniProt P35368); experiment: [3H]prazosin binding (alpha1-adrenoceptor) assay, alpha-1B; settings: membranes of transfected CHO-KI cells, read-out: affinity towards the alpha-1B adrenoceptor (pKi) (converted)
T1 construct: expressed in transfected cells; host or cells: CHO-K1
T1 sequence (P35368 1-520): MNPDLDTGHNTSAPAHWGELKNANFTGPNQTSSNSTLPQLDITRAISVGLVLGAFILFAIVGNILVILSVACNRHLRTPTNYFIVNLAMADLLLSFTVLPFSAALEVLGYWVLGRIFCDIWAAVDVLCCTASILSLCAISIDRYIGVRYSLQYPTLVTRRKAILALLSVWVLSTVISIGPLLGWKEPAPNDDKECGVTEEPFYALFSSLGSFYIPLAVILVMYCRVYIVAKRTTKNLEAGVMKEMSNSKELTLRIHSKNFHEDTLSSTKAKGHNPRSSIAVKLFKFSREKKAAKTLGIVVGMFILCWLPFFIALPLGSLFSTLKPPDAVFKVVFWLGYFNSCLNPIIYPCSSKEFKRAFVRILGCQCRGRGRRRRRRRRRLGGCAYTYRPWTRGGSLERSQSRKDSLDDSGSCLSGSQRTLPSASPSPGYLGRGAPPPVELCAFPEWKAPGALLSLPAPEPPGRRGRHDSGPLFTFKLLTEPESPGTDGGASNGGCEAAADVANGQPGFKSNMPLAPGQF
Protocol: (§1) Alpha1A, alpha1B, and alpha1D adrenoceptor transfected CHO-KI cells, prepared using the methods described by Chang et al., FEBS Lett. 1998, 422:279-283, were grown to confluence in T-162 tissue culture flasks in Ham's F-12 culture medium supplemented with 10% fetal bovine serum, geneticin (150 µg/mL) and streptomycin/penicillin (30 µg/mL/30 µg/mL) at 37 °C in 7% CO2. Cells were harvested by incubating with phosphate-buffered saline (PBS) containing 30 µM EDTA for 5-10 min at 37 °C. Cells were pelleted by centrifuging at 500 x g for 5 min, and the pelleted cells were homogenized (Polytron homogenizer) in 10 vols (w/v) of 50 mM Tris, 1 mM EDTA, (homogenisation buffer, pH 7.4 at 4 °C). The homogenate was centrifuged at 45,000 x g for 20 min. The pellet was resuspended in the homogenizing buffer and rehomogenized. The resulting homogenate was centrifuged at 45,000 x g for 20 min. The pellet was resuspended in 50 mM Tris buffer (pH 7.4 at 4 °C), aliquoted, frozen, and stored at -80 °C for further use.
(§2) The membranes were thawed at room temperature and diluted in assay buffer (50 mM Tris buffer at […]) at 37 °C and homogenized using the Polytron tissue disrupter. The membranes were incubated with the radioligand ([^3H]prazosin, NEN, 0.1 - 0.5 nM) and test compound at 37 °C for 30 min. The membranes were then filtered over polyethyleneimine-treated GF/B unifilter plates using a Packard Filtermate Harvester and washed with ice-cold 50 mM Tris-HCl, 1 mM EDTA buffer (3 x 3 sec. washes). Scintillation cocktail was added to the filter plates and bound radioligand determined by liquid scintillation spectrophotometry.
(§3) For each experiment, total binding (in the absence of any test or reference compounds) and non-specific binding (10 µM phentolamine) were determined. For each sample tested, the concentration producing 50% inhibition of binding (IC50) and Hill Slope (nH) was determined using iterative non-linear curve fitting techniques with Kaleidagraph (Synergy Software) or other appropriate software. If the radioligand KD was known, the inhibition dissociation constant (K1) of each ligand was determined according to the method of Cheng and Prusoff (Cheng, Y-C. and Prusoff, W.H., Biochem. Pharmacol., 1973, 22, 3099-3108).

[2] = biological target: T2, alpha-1A adrenoceptor (Homo sapiens, UniProt P35348); experiment: [3H]prazosin binding (alpha1-adrenoceptor) assay, alpha-1A; settings: membranes of transfected CHO-KI cells, read-out: affinity towards the alpha-1A adrenoceptor (pKi) (converted)
T2 construct: expressed in transfected cells; host or cells: CHO-K1
T2 sequence (P35348 1-466): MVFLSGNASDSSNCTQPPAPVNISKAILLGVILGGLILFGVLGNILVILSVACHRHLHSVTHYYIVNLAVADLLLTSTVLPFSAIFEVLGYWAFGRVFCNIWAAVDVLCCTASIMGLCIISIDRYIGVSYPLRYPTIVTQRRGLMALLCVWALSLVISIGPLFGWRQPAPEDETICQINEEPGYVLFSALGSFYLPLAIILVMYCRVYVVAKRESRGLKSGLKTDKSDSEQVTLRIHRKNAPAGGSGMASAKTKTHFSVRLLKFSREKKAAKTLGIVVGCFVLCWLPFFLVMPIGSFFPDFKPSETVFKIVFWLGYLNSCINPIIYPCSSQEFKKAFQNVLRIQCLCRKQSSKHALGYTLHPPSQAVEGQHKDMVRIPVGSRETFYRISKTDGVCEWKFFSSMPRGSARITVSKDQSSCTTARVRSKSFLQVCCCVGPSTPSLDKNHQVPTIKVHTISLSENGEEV
Protocol: as §1, §2, §3

[3] = biological target: T3, alpha-1D adrenoceptor (Homo sapiens, UniProt P25100); experiment: [3H]prazosin binding (alpha1-adrenoceptor) assay, alpha-1D; settings: membranes of transfected CHO-KI cells, read-out: affinity towards the alpha-1D adrenoceptor (pKi) (converted)
T3 construct: expressed in transfected cells; host or cells: CHO-K1
T3 sequence (P25100 1-572): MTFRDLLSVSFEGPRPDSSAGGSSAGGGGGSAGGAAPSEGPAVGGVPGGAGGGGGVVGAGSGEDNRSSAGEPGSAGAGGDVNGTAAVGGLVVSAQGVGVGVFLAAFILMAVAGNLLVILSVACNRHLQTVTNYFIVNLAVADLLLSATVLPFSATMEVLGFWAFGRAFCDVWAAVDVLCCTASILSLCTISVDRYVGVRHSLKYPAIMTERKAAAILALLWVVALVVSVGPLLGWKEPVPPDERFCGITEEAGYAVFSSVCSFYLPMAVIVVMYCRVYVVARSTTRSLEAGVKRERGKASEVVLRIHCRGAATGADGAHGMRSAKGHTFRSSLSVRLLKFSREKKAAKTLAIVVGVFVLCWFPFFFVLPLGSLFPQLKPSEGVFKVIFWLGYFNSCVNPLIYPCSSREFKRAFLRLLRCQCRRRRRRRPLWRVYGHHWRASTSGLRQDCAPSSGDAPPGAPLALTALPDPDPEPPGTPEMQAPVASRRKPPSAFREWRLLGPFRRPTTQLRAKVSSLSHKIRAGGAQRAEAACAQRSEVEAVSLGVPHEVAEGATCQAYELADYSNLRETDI
Protocol: as §1, §2, §3

[4] = test system: hypogastric nerve stimulation-induced increases in intraurethral pressure and phenylephrine-induced increases in diastolic blood pressure; experiment: Dog in vivo blood and intraurethral pressure assay; settings: anesthetized mongrel dogs, i.v. bolus, increasing doses
Protocol: The following describes an in vivo assay for measuring the relative effect of test compounds on hypogastric nerve stimulation-induced increases in intraurethral pressure and phenylephrine-induced increases in diastolic blood pressure in anesthetized dog.
Mongrel dogs (10 to 20 kg) were fasted for 12 to 18 hours and anesthetized with […] (35 mg/kg, i.v.). An endotracheal tube was inserted and thereafter the lungs were mechanically ventilated with room air. The right femoral vein was isolated and cannulated with two polyethylene cannulae, one for the administration of a continuous infusion of phenobarbital sodium (5 to 10 mg/kg/hr) and the other for bolus administration of test substances. The right femoral artery was isolated and cannulated to the abdominal aorta with a fluid filled polyethylene cannula connected to an external pressure transducer for monitoring diastolic aortic pressure (DAP). The bladder was exposed via a ventral midline abdominal incision and emptied of urine through a 22 gauge needle. The bladder was cannulated through a stab incision with a water filled balloon catheter connected to an external pressure transducer for monitoring prostatic intraurethral pressure (IUP). The right hypogastric nerve (HGN) was carefully isolated and attached to a Dastre's electrode for nerve stimulation. […]

| Structure (SMILES) | Ki [1] | Ki [2] | Ki [3] | inhibition of HGN stimulation-induced increases in IUP and of phenylephrine-induced increases in DAP [4] |
| --- | --- | --- | --- | --- |
| COc1cc2nc(N3CCc4ccc(S(=O)(=O)N5CCOCC5)cc4C3)[nH]c(=O)c2cc1OC [Compound 404, 6,7-dimethoxy-2-[7-(morpholine-4-sulfonyl)-3,4-dihydro-1H-isoquinolin-2-yl]-3H-quinazolin-4-one] | 63.1 nM | 8.13 nM | 275 nM | – |
| COc1ccc(-n2cnc3c2CCN(c2nc4cc(OC)c(OC)cc4c(=O)[nH]2)C3)cc1 [Compound 608, 6,7-dimethoxy-2-[1-(4-methoxy-phenyl)-1,4,6,7-tetrahydro-imidazo[4,5-c]pyridin-5-yl]-3H-quinazolin-4-one] | 5.89 nM | 2.75 nM | 83.2 nM | – |
| COc1cc2[nH]c(N3CCc4c(ncn4C4CCCCC4)C3)nc(=O)c2cc1OC [Compound 619, 2-(1-cyclohexyl-1,4,6,7-tetrahydro-imidazo[4,5-c]pyridin-5-yl)-6,7-dimethoxy-1H-quinazolin-4-one] | 7.59 nM | 3.72 nM | 81.3 nM | – |
| COc1cc2nc(N3CCc4c(cccc4N=CN(C)C)C3)[nH]c(=O)c2cc1OC [Compound 801, N-[2-(6,7-dimethoxy-4-oxo-3,4-dihydro-quinazolin-2-yl)-1,2,3,4-tetrahydro-isoquinolin-5-yl]-N,N-dimethyl-formamidine] | 4.47 nM | 2.75 nM | 372 nM | – |
| COc1cc2nc(N3CCc4c(cccc4NC4=NCCC4)C3)[nH]c(=O)c2cc1OC [Compound 810, 2-[5-(4,5-dihydro-3H-pyrrol-2-ylamino)-3,4-dihydro-1H-isoquinolin-2-yl]-6,7-dimethoxy-3H-quinazolin-4-one] | 6.61 nM | 9.55 nM | 398 nM | – |
| COc1cc2nc(N3CCN(C(=O)c4ccco4)CC3)nc(N)c2cc1OC [prazosin] | – | – | – | inhibited increases in IUP and DAP in similar fashion |

Now from value to molecule, other results behind:

| Ki [1] | Ki [2] | Ki [3] | Structure (SMILES) | inhibition of HGN stimulation-induced increases in IUP and of phenylephrine-induced increases in DAP [4] |
| --- | --- | --- | --- | --- |
| 20 nM | 3.39 nM | 347 nM | COc1cc2nc(N3CCc4c(ncn4Cc4ccccc4)C3)[nH]c(=O)c2cc1OC [Compound 501, 2-(1-benzyl-1,4,6,7-tetrahydro-imidazo[4,5-c]pyridin-5-yl)-6,7-dimethoxy-3H-quinazolin-4-one] | – |
| 4.27 nM | 0.832 nM | 37.2 nM | COc1cc2nc(N3CCc4c(ncn4-c4ccccc4)C3)[nH]c(=O)c2cc1OC [Compound 602, 6,7-dimethoxy-2-(1-phenyl-1,4,6,7-tetrahydro-imidazo[4,5-c]pyridin-5-yl)-3H-quinazolin-4-one] | – |
| 12.3 nM | 2.69 nM | 178 nM | COc1cc2nc(N3CCc4c(ncn4-c4ccc5c(c4)OCO5)C3)[nH]c(=O)c2cc1OC [Compound 612, 2-(1-benzo[1,3]dioxol-5-yl-1,4,6,7-tetrahydro-imidazo[4,5-c]pyridin-5-yl)-6,7-dimethoxy-3H-quinazolin-4-one] | – |
| 56.2 nM | 25.1 nM | 692 nM | COc1cc2nc(N3CCc4c(cccc4-c4cnccc4N)C3)[nH]c(=O)c2cc1OC [Compound 902, 2-[5-(4-amino-pyridin-3-yl)-3,4-dihydro-1H-isoquinolin-2-yl)-6,7-dimethoxy-3H-quinazolin-4-one] | – |
